31 molecules from patent publication US9340537B2, “Benzamide derivatives for inhibiting the activity of ABL1, ABL2 and BCR-ABL1” (NOVATIS AG, priority 2012, dated 2016) can be followed below.

Test [1] addresses T1, ABL1 (64-515) (Homo sapiens (Human), UniProt P00519). As to the kind of experiment: Radio ABL1 (64-515) radiometric filter-binding kinase assay. Type of test: biochemical. As to conditions: 20 μM ATP.
Description: Pre-incubation of enzyme with compounds (when stated) was performed by exposing the enzyme to compounds prior to addition of the substrate mixture (ATP and/or peptide substrate). […] Filter-plates were washed 3× with 0.5% H3PO4, followed by addition of 30 μL scintillation cocktail (Microscint, Perkin Elmer) per well and then analysed in a TopCount NXT scintillation counter (Perkin Elmer). Results were expressed as IC50 values.
Test [2] has as its target T1, ABL1 (64-515). Briefly: Caliper ABL1 (64-515) microfluidic mobility shift kinase assay. The following applies: read-out: Caliper ABL1 (64-515) IC50.

T1 sequence (P00519 64-515): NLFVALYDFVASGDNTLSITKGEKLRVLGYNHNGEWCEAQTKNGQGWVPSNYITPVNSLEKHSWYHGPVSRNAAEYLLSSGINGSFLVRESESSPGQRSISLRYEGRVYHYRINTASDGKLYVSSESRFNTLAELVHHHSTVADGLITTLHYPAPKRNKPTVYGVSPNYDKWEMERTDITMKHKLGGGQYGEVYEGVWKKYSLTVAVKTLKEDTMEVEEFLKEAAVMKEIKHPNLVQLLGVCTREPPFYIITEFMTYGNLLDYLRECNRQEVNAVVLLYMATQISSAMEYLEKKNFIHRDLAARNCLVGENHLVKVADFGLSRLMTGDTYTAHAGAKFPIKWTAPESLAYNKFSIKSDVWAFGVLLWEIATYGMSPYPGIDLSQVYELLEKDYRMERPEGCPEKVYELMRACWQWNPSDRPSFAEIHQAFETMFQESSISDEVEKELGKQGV

In general, IC50 refers to the concentration needed to halve the response being measured. On to `CO[C@H]1CN(c2ccc(C(=O)Nc3ccc(OC(F)(F)F)cc3)cc2-c2cncs2)C[C@@H]1O` (relative stereo) [Example 4, 4-(trans-3-Hydroxy-4-methoxypyrrolidin-1-yl)-3-(thiazol-5-yl)-N-(4-(trifluoromethoxy)phenyl)benzamide], for which the IC50 was 4 nM at ABL1 (64-515) [1] and 4.2 nM on ABL1 (64-515) [2].

On to `O=C(Nc1ccc(OC(F)(F)F)cc1)c1cnc(N2C[C@H](CO)[C@@H](O)C2)c(-c2cncs2)c1` (relative stereo) [Example 17, 6-(trans-3-Hydroxy-4-(hydroxymethyl)pyrrolidin-1-yl)-5-(thiazol-5-yl)-N-(4-(trifluoromethoxy)phenyl)nicotinamide], for which the IC50 at ABL1 (64-515) [1] was found to be 10 nM; at ABL1 (64-515) [2], 1.4 nM.

In the case of `N[C@@H]1CN(c2ncc(C(=O)Nc3ccc(OC(F)(F)Cl)cc3)cc2-c2ccn[nH]2)C[C@H]1F` (relative stereo) [Example 52, 6-(trans-3-Amino-4-fluoropyrrolidin-1-yl)-N-(4-(chlorodifluoromethoxy)phenyl)-5-(1H-pyrazol-5-yl)nicotinamide], the IC50 at ABL1 (64-515) [1] was 3 nM; on ABL1 (64-515) [2] it was 3.4 nM.

In the case of `O=C(Nc1ccc(OC(F)(F)F)cc1)c1cnc(N2C[C@H](O)[C@@H](F)C2)c(-c2ccn[nH]2)c1` (relative stereo) [Example 74, 6-(trans-3-Fluoro-4-hydroxypyrrolidin-1-yl)-5-(1H-pyrazol-5-yl)-N-(4-(trifluoromethoxy)phenyl)nicotinamide], on ABL1 (64-515) [2], the IC50 is 3.7 nM.

On to `CO[C@H]1CN(c2ncc(C(=O)Nc3ccc(OC(F)(F)F)cc3)cc2-c2ccn[nH]2)C[C@@H]1N` (relative stereo) [Example 78, 6-(trans-3-Amino-4-methoxypyrrolidin-1-yl)-5-(1H-pyrazol-5-yl)-N-(4-(trifluoromethoxy)phenyl)nicotinamide], for which the IC50 on ABL1 (64-515) [1] is 4 nM; on ABL1 (64-515) [2] it was 3.6 nM.

For `CO[C@H]1CN(c2ncc(C(=O)Nc3ccc(OC(F)(F)Cl)cc3)cc2-c2ccn[nH]2)C[C@@H]1N` (relative stereo) [Example 79, 6-(trans-3-Amino-4-methoxypyrrolidin-1-yl)-N-(4-(chlorodifluoromethoxy)phenyl)-5-(1H-pyrazol-5-yl)nicotinamide], the IC50 on ABL1 (64-515) [1] is 1 nM; on ABL1 (64-515) [2] it was 0.7 nM.

With `NC[C@H]1CN(c2ncc(C(=O)Nc3ccc(OC(F)(F)Cl)cc3)cc2-c2ccn[nH]2)C[C@H]1O` (relative stereo) [Example 80, 6-(cis-3-(Aminomethyl)-4-hydroxypyrrolidin-1-yl)-N-(4-(chlorodifluoromethoxy)phenyl)-5-(1H-pyrazol-5-yl)nicotinamide], the results for the IC50 on ABL1 (64-515) [1] and on ABL1 (64-515) [2] were 0.4 nM and less than 0.13 nM, respectively.

On ABL1 (64-515) [1], `O=C(Nc1ccc(OC(F)(F)F)cc1)c1cnc(N2CC[C@@H](O)C2)c(-c2cnoc2)c1` [Example 8, (R)-6-(3-Hydroxypyrrolidin-1-yl)-5-(isoxazol-4-yl)-N-(4-(trifluoromethoxy)phenyl)nicotinamide] returned a half-maximal inhibitory concentration (IC50) of 9 nM.

`O=C(Nc1ccc(OC(F)(F)F)cc1)c1cnc(N2CC[C@@H](O)C2)c(-c2nccs2)c1` [Example 9, (R)-6-(3-Hydroxypyrrolidin-1-yl)-5-(thiazol-2-yl)-N-(4-(trifluoromethoxy)phenyl)nicotinamide]: the IC50 at ABL1 (64-515) [1] is 10 nM.

Turning to `Cc1ncc(-c2cc(C(=O)Nc3ccc(OC(F)(F)F)cc3)cnc2N2CC[C@@H](O)C2)s1` [Example 11, (R)-6-(3-Hydroxypyrrolidin-1-yl)-5-(2-methylthiazol-5-yl)-N-(4-(trifluoromethoxy)phenyl)nicotinamide], the IC50 at ABL1 (64-515) [1] was less than 3 nM.

For `O=C(Nc1ccc(OC(F)(F)F)cc1)c1cnc(N2CC[C@@H](O)C2)c(-c2csc(CO)c2)c1` [Example 12, (R)-5-(5-(Hydroxymethyl)thiophen-3-yl)-6-(3-hydroxypyrrolidin-1-yl)-N-(4-(trifluoromethoxy)phenyl)nicotinamide], at ABL1 (64-515) [1], the 50% inhibitory concentration (IC50) was less than 3 nM.

As to `O=C(Nc1ccc(OC(F)(F)F)cc1)c1cnc(N2CCCC2)c(-c2ccn[nH]2)c1` [Example 15, 5-(1H-Pyrazol-5-yl)-6-(pyrrolidin-1-yl)-N-(4-(trifluoromethoxy)phenyl)nicotinamide], the IC50 is less than 3 nM on ABL1 (64-515) [1] and 0.8 nM on ABL1 (64-515) [2].

As for `Cc1ncc(-c2cc(C(=O)Nc3ccc(OC(F)(F)F)cc3)cnc2N2CC[C@H](CO)C2)s1` [Example 16, (S)-6-(3-(Hydroxymethyl)pyrrolidin-1-yl)-5-(2-methylthiazol-5-yl)-N-(4-(trifluoromethoxy)phenyl)nicotinamide], the 50% inhibitory concentration (IC50) at ABL1 (64-515) [1] is less than 3 nM; on ABL1 (64-515) [2] it was 1.1 nM.

Turning to `O=C(Nc1ccc(OC(F)(F)F)cc1)c1cnc(N2CCOCC2)c(-c2ccn[nH]2)c1` [Example 18, 6-Morpholino-5-(1H-pyrazol-5-yl)-N-(4-(trifluoromethoxy)phenyl)nicotinamide], the values for the half-maximal inhibitory concentration (IC50) at ABL1 (64-515) [1] and at ABL1 (64-515) [2] were 5 nM and 6.5 nM, respectively.

On to `CN(CCO)c1ccc(C(=O)Nc2ccc(OC(F)(F)F)cc2)cc1-c1cncs1` [Example 20, 4-((2-Hydroxyethyl)(methyl)amino)-3-(thiazol-5-yl)-N-(4-(trifluoromethoxy)phenyl)benzamide], for which the results for the half-maximal inhibitory concentration (IC50) at ABL1 (64-515) [1] and on ABL1 (64-515) [2] were less than 3 nM and 5 nM, respectively.

As for `CN(CCO)c1ncc(C(=O)Nc2ccc(OC(F)(F)Cl)cc2)cc1-c1ccn[nH]1` [Example 23, N-(4-(Chlorodifluoromethoxy)phenyl)-6-((2-hydroxyethyl)(methyl)amino)-5-(1H-pyrazol-5-yl)nicotinamide], the figures for the IC50 at ABL1 (64-515) [1] and at ABL1 (64-515) [2] were 2.7 nM and 3.4 nM, respectively.

Turning to `O=C(Nc1ccc(SC(F)(F)F)cc1)c1cnc(N2CC[C@@H](O)C2)c(-c2ccc[nH]2)c1` [Example 25, (R)-6-(3-Hydroxypyrrolidin-1-yl)-5-(1H-pyrrol-2-yl)-N-(4-((trifluoromethyl)thio)phenyl)nicotinamide], the IC50 on ABL1 (64-515) [1] stood at 3.7 nM; on ABL1 (64-515) [2], 2.6 nM.

On to `CN(CCO)c1ncc(C(=O)Nc2ccc(SC(F)(F)F)cc2)cc1-c1ccn[nH]1` [Example 26, 6-((2-Hydroxyethyl)(methyl)amino)-5-(1H-pyrazol-5-yl)-N-(4-((trifluoromethyl)thio)phenyl)nicotinamide], for which the IC50 on ABL1 (64-515) [1] turned out to be 11 nM; on ABL1 (64-515) [2], 1 nM.

As to `O=C(Nc1ccc(OC(F)(F)F)cc1)c1cnc(N2CCCC2)c(-c2cc(CO)n[nH]2)c1` [Example 43, 5-(3-(Hydroxymethyl)-1H-pyrazol-5-yl)-6-(pyrrolidin-1-yl)-N-(4-(trifluoromethoxy)phenyl)nicotinamide], the IC50 at ABL1 (64-515) [2] worked out at 3.3 nM.

In the case of `O=C(Nc1ccc(OC(F)(F)Cl)cc1)c1cnc(N2CCC(F)(F)C2)c(-c2ccn[nH]2)c1` [Example 48, N-(4-(Chlorodifluoromethoxy)phenyl)-6-(3,3-difluoropyrrolidin-1-yl)-5-(1H-pyrazol-5-yl)nicotinamide], the IC50 on ABL1 (64-515) [1] was found to be 5.5 nM.

`O=C(Nc1ccc(OC(F)(F)Cl)cc1)c1cnc(N2CCC3(CNC3)C2)c(-c2ccn[nH]2)c1` [Example 50, N-(4-(Chlorodifluoromethoxy)phenyl)-5-(1H-pyrazol-5-yl)-6-(2,6-diazaspiro[3.4]octan-6-yl)nicotinamide]: the IC50 on ABL1 (64-515) [1] was 1.3 nM.

As for `NCC1(O)CCN(c2ncc(C(=O)Nc3ccc(OC(F)(F)Cl)cc3)cc2-c2ccn[nH]2)C1` (centres unmarked) [Example 83, 6-(3-(Aminomethyl)-3-hydroxypyrrolidin-1-yl)-N-(4-(chlorodifluoromethoxy)phenyl)-5-(1H-pyrazol-5-yl)nicotinamide], the IC50 on ABL1 (64-515) [2] was 0.4 nM.

Turning to `O=C(O)CCNc1ncc(C(=O)Nc2ccc(OC(F)(F)Cl)cc2)cc1-c1ccn[nH]1` [Example 94, 3-((5-((4-(Chlorodifluoromethoxy)phenyl)carbamoyl)-3-(1H-pyrazol-5-yl)pyridin-2-yl)amino)propanoic acid], at ABL1 (64-515) [2], the IC50 is 23 nM.

For the molecule `O=C(O)CCNc1ncc(C(=O)Nc2ccc(OC(F)(F)F)cc2)cc1-c1ccn[nH]1` [Example 95, 3-((3-(1H-Pyrazol-5-yl)-5-((4-(trifluoromethoxy)phenyl)carbamoyl)pyridin-2-yl)amino)propanoic acid], the IC50 at ABL1 (64-515) [2] amounted to 47 nM.

For `O=C(Nc1ccc(OC(F)(F)Cl)cc1)c1cnc(NCCC(O)C(=O)O)c(-c2ccn[nH]2)c1` (centres unmarked) [Example 96, 4-((5-((4-(Chlorodifluoromethoxy)phenyl)carbamoyl)-3-(1H-pyrazol-5-yl)pyridin-2-yl)amino)-2-hydroxybutanoic acid], the half-maximal inhibitory concentration (IC50) on ABL1 (64-515) [2] came to 5.3 nM.

For the molecule `O=C(Nc1ccc(OC(F)(F)Cl)cc1)c1cnc(NCC(O)CCO)c(-c2ccn[nH]2)c1` (centres unmarked) [Example 97, N-(4-(Chlorodifluoromethoxy)phenyl)-6-((2,4-dihydroxybutyl)amino)-5-(1H-pyrazol-5-yl)nicotinamide], on ABL1 (64-515) [2], the IC50 stood at 5.7 nM.

As to `O=C(Nc1ccc(OC(F)(F)Cl)cc1)c1cnc(NC[C@@H](O)CCO)c(-c2ccn[nH]2)c1` [Example 98, (S)—N-(4-(Chlorodifluoromethoxy)phenyl)-6-((2,4-dihydroxybutyl)amino)-5-(1H-pyrazol-5-yl)nicotinamide], the IC50 at ABL1 (64-515) [2] amounted to 5.7 nM.

With `O=C(Nc1ccc(OC(F)(F)Cl)cc1)c1cnc(NC[C@H](O)CCO)c(-c2ccn[nH]2)c1` [Example 99, (R)—N-(4-(Chlorodifluoromethoxy)phenyl)-6-((2,4-dihydroxybutyl)amino)-5-(1H-pyrazol-5-yl)nicotinamide], at ABL1 (64-515) [2], the IC50 is 5.1 nM.

Consider `O=C(Nc1ccc(OC(F)(F)Cl)cc1)c1cnc(NCCC(O)CO)c(-c2ccn[nH]2)c1` (centres unmarked) [Example 100, N-(4-(Chlorodifluoromethoxy)phenyl)-6-((3,4-dihydroxybutyl)amino)-5-(1H-pyrazol-5-yl)nicotinamide], for which, at ABL1 (64-515) [2], the IC50 was 6.6 nM.

For `O=C(Nc1ccc(OC(F)(F)Cl)cc1)c1cnc(NCC[C@H](O)CO)c(-c2ccn[nH]2)c1` [Example 101, (S)—N-(4-(Chlorodifluoromethoxy)phenyl)-6-((3,4-dihydroxybutyl)amino)-5-(1H-pyrazol-5-yl)nicotinamide], the IC50 on ABL1 (64-515) [2] was 7.8 nM.

With `O=C(Nc1ccc(OC(F)(F)Cl)cc1)c1cnc(NCC[C@@H](O)CO)c(-c2ccn[nH]2)c1` [Example 102, (R)—N-(4-(Chlorodifluoromethoxy)phenyl)-6-((3,4-dihydroxybutyl)amino)-5-(1H-pyrazol-5-yl)nicotinamide], the half-maximal inhibitory concentration (IC50) at ABL1 (64-515) [2] came to 13 nM.
